From EP0942911B1, “BENZOPYRANOPYRROLE AND BENZOPYRANOPYRIDINE ALPHA-1 ADRENERGIC COMPOUNDS” (Abbott Laboratories, priority 1996, dated 1998)
Structures can show the parent of a compound that is named as a salt. Where two headings read alike, the source gives them in different places.

What was measured:
Test in all cases: biochemical
[1] = target: T1, α-1A adrenoreceptor (rat submaxillary gland) (Rattus norvegicus, UniProt P43140); assay type: binding; conditions: read-out: Radioligand Binding (Ki, nM) 1A (Rat)
T1 sequence (P43140 1-466): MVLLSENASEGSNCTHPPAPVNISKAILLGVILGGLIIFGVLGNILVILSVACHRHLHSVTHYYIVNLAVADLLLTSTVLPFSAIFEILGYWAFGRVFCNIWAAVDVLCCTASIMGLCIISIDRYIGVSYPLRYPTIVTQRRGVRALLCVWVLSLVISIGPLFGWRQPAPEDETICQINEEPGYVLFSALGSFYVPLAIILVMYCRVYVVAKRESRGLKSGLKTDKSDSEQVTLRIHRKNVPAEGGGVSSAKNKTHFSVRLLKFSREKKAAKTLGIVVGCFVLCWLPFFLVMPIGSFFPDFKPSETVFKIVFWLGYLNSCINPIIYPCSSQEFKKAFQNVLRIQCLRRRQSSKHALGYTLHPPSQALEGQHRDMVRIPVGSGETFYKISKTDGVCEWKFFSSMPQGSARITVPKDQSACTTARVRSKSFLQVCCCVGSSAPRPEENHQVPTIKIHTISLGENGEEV
Procedure, shortened: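 Membranes were prepared from rat submaxillary glands as the α-1A adrenoreceptor source. Competition binding followed Greengrass and Bremner, with bound radioligand measured by scintillation counting.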

α-1a adrenoreceptor = target: T2, α-1a adrenoreceptor (Bos taurus, UniProt P18130); assay type: binding, bovine; conditions: read-out: Radioligand Binding (Ki, nM) 1a (Bovine)
T2 sequence (P18130 1-466): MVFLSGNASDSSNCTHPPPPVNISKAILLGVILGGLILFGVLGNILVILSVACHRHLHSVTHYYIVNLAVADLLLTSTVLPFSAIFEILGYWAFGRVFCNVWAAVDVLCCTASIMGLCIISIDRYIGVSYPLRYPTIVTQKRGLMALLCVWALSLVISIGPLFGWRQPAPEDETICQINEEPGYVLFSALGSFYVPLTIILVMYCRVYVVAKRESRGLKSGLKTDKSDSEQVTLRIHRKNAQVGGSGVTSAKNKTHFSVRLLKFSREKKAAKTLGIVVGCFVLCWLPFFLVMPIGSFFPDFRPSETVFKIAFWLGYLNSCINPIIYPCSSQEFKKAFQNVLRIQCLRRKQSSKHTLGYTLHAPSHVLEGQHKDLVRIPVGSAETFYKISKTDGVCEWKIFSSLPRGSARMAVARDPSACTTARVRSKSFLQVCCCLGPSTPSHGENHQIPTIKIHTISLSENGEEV
Procedure, shortened: (§1)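 Radioactivity counted by liquid scintillation after radioligand binding to membranes. Receptors: cloned α-1a, α-1b, α-1d stably expressed in LTK mouse fibroblasts (G418 selection, SV40 early promoter); rat submaxillary gland membranes for pharmacologically defined α-1A.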

α-1b adrenoreceptor = target: T3, α-1b adrenoreceptor (Mesocricetus auratus, UniProt P18841); assay type: binding, hamster; conditions: read-out: Radioligand Binding (Ki, nM) 1b (Hamster)
T3 sequence (P18841 1-515): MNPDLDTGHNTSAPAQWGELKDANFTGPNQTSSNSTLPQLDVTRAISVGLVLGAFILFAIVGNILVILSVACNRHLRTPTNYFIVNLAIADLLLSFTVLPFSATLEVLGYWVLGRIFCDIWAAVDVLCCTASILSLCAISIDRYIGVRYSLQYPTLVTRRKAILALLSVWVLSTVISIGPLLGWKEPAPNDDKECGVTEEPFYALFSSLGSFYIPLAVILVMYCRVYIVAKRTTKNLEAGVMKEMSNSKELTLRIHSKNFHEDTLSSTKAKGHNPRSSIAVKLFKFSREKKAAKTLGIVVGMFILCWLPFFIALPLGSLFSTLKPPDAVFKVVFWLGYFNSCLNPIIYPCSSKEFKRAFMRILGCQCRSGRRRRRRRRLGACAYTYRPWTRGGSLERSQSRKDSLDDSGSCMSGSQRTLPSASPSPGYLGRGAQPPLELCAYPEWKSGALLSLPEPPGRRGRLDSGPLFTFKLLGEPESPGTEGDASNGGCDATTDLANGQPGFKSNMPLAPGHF
Procedure, shortened: as §1

α-1d adrenoreceptor = target: T4, α-1d adrenoreceptor (Rattus norvegicus, UniProt P23944); assay type: binding; conditions: read-out: Radioligand Binding (Ki, nM) 1d (Rat)
T4 sequence (P23944 1-561): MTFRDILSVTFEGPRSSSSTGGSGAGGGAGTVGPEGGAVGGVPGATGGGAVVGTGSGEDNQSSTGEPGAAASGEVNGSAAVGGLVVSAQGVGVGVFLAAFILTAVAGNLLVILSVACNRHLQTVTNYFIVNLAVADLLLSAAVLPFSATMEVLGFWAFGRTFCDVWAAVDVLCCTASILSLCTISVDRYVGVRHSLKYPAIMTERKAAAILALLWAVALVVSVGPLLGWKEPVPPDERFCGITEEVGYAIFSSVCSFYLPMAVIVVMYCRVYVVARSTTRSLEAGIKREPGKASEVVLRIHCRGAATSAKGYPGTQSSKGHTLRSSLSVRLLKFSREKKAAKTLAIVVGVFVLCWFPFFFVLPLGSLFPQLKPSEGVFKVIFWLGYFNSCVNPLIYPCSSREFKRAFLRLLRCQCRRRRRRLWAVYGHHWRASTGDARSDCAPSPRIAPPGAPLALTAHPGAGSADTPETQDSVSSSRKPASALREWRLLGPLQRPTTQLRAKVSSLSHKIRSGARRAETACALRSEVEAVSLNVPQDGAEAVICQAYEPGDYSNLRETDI
Procedure, shortened: as §1

[2] = [3H]-prazosin radioligand, rat submaxillary gland membranes
[3] = [3H]-prazosin radioligand, cloned receptor in LTK cell membranes

Compound | Ki [1, 2] | Ki (α-1a adrenoreceptor; [3]) | Ki (α-1b adrenoreceptor; [3]) | Ki (α-1d adrenoreceptor; [3]) | Ki [1] | Ki (α-1a adrenoreceptor) | Ki (α-1b adrenoreceptor) | Ki (α-1d adrenoreceptor)
COc1cccc2c1[C@@H]1CCN(CCCn3c(=O)[nH]c4c(sc5cccnc54)c3=O)C[C@H]1CO2 [Example 92, 3-[3-((4aS,10bR)-trans-10-Methoxy-1,3,4,4a,5,10b-hexahydro-2H-[1]-benzopyrano[3,4-c]pyrido-3-yl)propyl]-pyrido[2',3':4,5]thieno[3,2-d]pyrimidine-2,4(1H,3H)-dione dihydrochloride] | 3.85 nM | 2.2 nM | 45.1 nM | 18.5 nM | – | – | – | –
COc1cccc2c1[C@@H]1CCN(CCCCn3c(=O)[nH]c4c(sc5ncc(-c6ccccc6)nc54)c3=O)C[C@H]1CO2 [Example 100, 3-[4-((4aS,10bR)-trans-10-Methoxy-1,3,4,4a,5,10b-hexahydro-2H-[1]-benzopyrano[3,4-c]pyrido-3-yl)butyl]-8-phenyl-pyrazino[2',3':4,5]thieno[3,2-d]pyrimidine-2,4(1H,3H)-dione hydrochloride] | 30.5 nM | 5.83 nM | 27 nM | 7.59 nM | – | – | – | –
COc1cccc2c1[C@H]1CN(CCCCn3c(=O)[nH]c4c(sc5nccnc54)c3=O)C[C@@H]1CO2 [Example 12, 3-[4-((3aR,9bS)-trans-9-Methoxy-1,2,3,3a.4,9b-hexahydro-[1]-benzopyrano[3,4-c]pyrrol-2-yl)butyl]-pyrazino[2',3':4,5]thieno[3,2-d]pyrimidine-2,4(1H,3H)-dione dihydrochloride] | 0.52 nM | 0.375 nM | 5.25 nM | 2.17 nM | – | – | – | –
COc1cccc2c1[C@H]1CN(CCCCn3c(=O)[nH]c4c(sc5ncc(-c6ccccc6)nc54)c3=O)C[C@@H]1CO2 [Example 9, 3-[4-((3aR,9bS)-trans-9-Methoxy-1,2,3,3a,4,9b-hexahydro-[1]-benzopyrano[3,4-c]pyrrol-2-yl)butyl]-8-phenyl-pyrazino[2',3':4,5]thieno[3,2-d]pyrimidine-2,4(1H,3H)-dione hydrochloride] | 2.27 nM | 0.325 nM | 17.8 nM | 1.55 nM | – | – | – | –
COc1cccc2c1[C@@H]1CN(CCCCn3c(=O)[nH]c4c(sc5ncc(-c6ccsc6)nc54)c3=O)C[C@@H]1CO2 [Example 57, 3-[4-((3aR,9bR)-cis-9-Methoxy-1,2,3,3a,4,9b-hexahydro-[1]-benzopyrano[3,4-c]pyrrol-2-yl)butyl]-8-(3-thienyl)-pyrazino[2',3':4,5]thieno[3,2-d]pyrimidine-2,4(1H,3H)-dione dihydrochloride] | 0.682 nM | 0.078 nM | 19.3 nM | 0.507 nM | – | – | – | –
O=c1[nH]c2c(sc3cccnc32)c(=O)n1CCCCN1C[C@@H]2COc3ccccc3[C@H]2C1 (racemic) [Example 71, 3-[4-((±)-trans-1,2,3,3a,4,9b-hexahydro-[1]-benzopyrano[3,4-c]pyrrol-2-yl)butyl]-pyrido[2',3':4,5]thieno[3,2-d]pyrimidine-2,4(1H,3H)-dione hydrochloride] | – | – | – | – | 0.065 nM | 0.068 nM | 0.634 nM | 0.169 nM
COc1cccc2c1[C@@H]1CN(CCCCn3c(=O)[nH]c4c(sc5c(Cl)ccnc54)c3=O)C[C@@H]1CO2 [Example 20, 3-[4-((3aR,9bR-cis-9-Methoxy-1,2,3,3a,4,9b-hexahydro-[1]-benzopyrano[3,4-c]pyrrol-2-yl)butyl]-6-chloro-pyrido[2',3':4,5]thieno[3,2-d]pyrimidine-2,4(1H,3H)-dione hydrochloride] | 0.208 nM | 0.038 nM | 3.5 nM | 0.439 nM | – | – | – | –
COc1cccc2c1[C@@H]1CN(CCCCCn3c(=O)[nH]c4c(sc5ccccc54)c3=O)C[C@@H]1CO2 [Example 24, 3-[5-((3aR,9bR)-cis-9-Methoxy-1,2,3,3a,4,9b-hexahydro-[1]-benzopyrano[3,4-c]pyrrol-2-yl)pentyl]-[1]benzthieno[3,2-d]pyrimidine-2,4(1H,3H)-dione hydrochloride] | 5.37 nM | 0.616 nM | 5.56 nM | 4.51 nM | – | – | – | –
COc1cnc2sc3c(=O)n(CCCCN4CC[C@H]5c6c(OC)cccc6OC[C@@H]5C4)c(=O)[nH]c3c2n1 [Example 99, 3-[4-((4aS,10bR)-trans-10-Methoxy-1,3,4,4a,5,10b-hexahydro-2H-[1]-benzopyrano[3,4-c]pyrido-3-yl)butyl]-8-methoxy-pyrazino[2',3':4,5]thieno[3,2-d]pyrimidine-2,4(1H,3H)-dione hydrochloride] | 14.9 nM | 1.73 nM | 57.1 nM | 5.81 nM | – | – | – | –
COc1cccc2c1[C@H]1CCN(CCCCn3c(=O)[nH]c4c(sc5cccnc54)c3=O)C[C@@H]1CO2 [Example 94, 3-[4-((4aR,10bS)-trans-10-Methoxy-1,3,4,4a,5,10b-hexahydro-2H-[1]-benzopyrano[3,4-c]pyrido-3-yl)butyl]-pyrido[2',3':4,5]thieno[3,2-d]pyrimidine-2,4(1H,3H)-dione dihydrochloride] | 0.185 nM | 0.097 nM | 1.97 nM | 0.361 nM | – | – | – | –
COc1cccc2c1[C@@H]1CN(CCCCn3c(=O)[nH]c4c(sc5ccccc54)c3=O)C[C@@H]1CO2 [Example 22, 3-[4-((3aR,9bR)-cis-9-Methoxy-1,2,3,3a,4,9b-hexahydro-[1]-benzopyrano[3,4-c]pyrrol-2-yl)butyl]-[1]benzthieno[3,2-d]pyrimidine-2,4(1H,3H)-dione hydrochloride] | 0.196 nM | 0.031 nM | 1.16 nM | 0.138 nM | – | – | – | –
COc1ccc2c(c1)[C@@H]1CN(CCn3c(=O)[nH]c4c(sc5ncccc54)c3=O)C[C@@H]1CO2 (racemic) [Example 78, 3-[2-((±)-cis-8-Methoxy-1,2,3,3a,4,9b-hexahydro-[1]-benzopyrano[3,4-c]pyrrol-2-yl)ethyl]-pyrido[3',2':4,5]thieno[3,2-d]pyrimidine-2,4(1H,3H)-dione hydrochloride] | – | – | – | – | 0.297 nM | 0.122 nM | 1.88 nM | 0.478 nM
